Reference: patent US20050119190A1, “Inhibitors of the blood-clotting factor xa, production thereof and use of the same” (priority 2002, published 2005)
Structures can show the parent of a compound that is named as a salt.

target: F Xa; assay: not given; conditions: values from cited literature; cited from earlier work

For N=C(N)c1ccc(C=C2CCCCC(=Cc3ccc(C(=N)N)cc3)C2=O)cc1 [BABCH], the Ki is given as 13 nM.

target: T1, F Xa (bovine) (Bos taurus, UniProt P00743); assay: Inhibition of F Xa, Ki by the method of Dixon, chromogenic substrate Moc-D-Nle-Gly-Arg-pNA; type: biochemical; conditions: Example 2; bovine F Xa, 25° C., pH 8.0; average of at least three determinations
T1 construct: purchased Diagnostic Reagents Ltd, Thame, GB
T1 sequence (P00743 234-492 limits assumed): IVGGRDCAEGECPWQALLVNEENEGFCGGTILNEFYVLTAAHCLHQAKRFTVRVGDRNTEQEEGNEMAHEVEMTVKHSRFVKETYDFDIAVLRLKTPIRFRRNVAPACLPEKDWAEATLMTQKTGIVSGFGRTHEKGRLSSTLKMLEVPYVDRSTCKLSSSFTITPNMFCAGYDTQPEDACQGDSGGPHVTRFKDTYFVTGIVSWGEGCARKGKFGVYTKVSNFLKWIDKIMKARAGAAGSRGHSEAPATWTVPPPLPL
T1 sequence (P00743 41-180 partner limits assumed): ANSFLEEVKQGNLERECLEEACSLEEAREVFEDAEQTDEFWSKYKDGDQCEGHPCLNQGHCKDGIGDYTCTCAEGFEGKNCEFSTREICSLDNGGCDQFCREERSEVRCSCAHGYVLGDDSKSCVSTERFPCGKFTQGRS
Description: The inhibitory effect was determined by incubating 200 μl of Tris buffer (0.05 M, 0.154 M NaCI, 5% ethanol, pH 8.0; contains the inhibitor), 25 μl of substrate (Moc-D-Nle-Gly-Arg-pNA in H2O; Pentapharm Ltd., Basel, Switzerland) and 50 μl of F Xa (bovine, Diagnostic Reagents Ltd, Thame, GB) at 25° C. After 3 min, the reaction was stopped by adding 25 μl of acetic acid (50%), and the absorption at 405 nm was determined using a microplate reader (MR 5000, Dynatech, Denkendorf, Germany). The Ki values were found by the method of Dixon (Biochem. J. 55, 170-171, 1953) by linear regression using a computer program. The Ki values are the average of at least three determinations.

First: CC(C)(C)OC[C@@H](NS(=O)(=O)Cc1ccccc1)C(=O)NCC(=O)NCc1ccc(C(=N)N)cc1 [Bzl—SO2 D CH2—O—tBu H CH2 CH2, Benzylsulfonyl-D-Ser(tBu)-Gly 4-amidinobenzylamide]
Second: CC(C)(C)OC[C@@H](NS(=O)(=O)Cc1ccccc1)C(=O)NC(CC(=O)O)C(=O)NCc1ccc(C(=N)N)cc1 (stereo partly drawn) [Bzl—SO2 D CH2—O—tBu H CH—CH2—COOH CH2]
The Ki of the first is 24-fold lower: 50 nM for the first, 1200 nM for the second.

Compound CC(C)(C)OC[C@@H](NS(=O)(=O)Cc1ccccc1)C(=O)N[C@@H](CCC(=O)O)C(=O)NCc1ccc(C(=N)N)cc1 [Bzl—SO2 D CH2—O—tBu H CH—(CH2)2—COOH CH2, Benzylsulfonyl-D-Ser(tBu)-Glu 4-amidinobenzylamide×TFA] has a Ki of 250 nM.

same assay, conditions: Example 4; inhibition of factor Xa by inhibitors of formula I

First: CC(C)(C)OC[C@@H](NS(=O)(=O)Cc1ccc(F)cc1)C(=O)NCC(=O)NCc1ccc(C(=N)N)cc1 [compound 9]
Second: CC(C)(C)OC[C@@H](NS(=O)(=O)Cc1ccc(CC(=O)O)cc1)C(=O)NCC(=O)NCc1ccc(C(=N)N)cc1 [compound 23]
The Ki of the first is 4.7-fold lower: 36 nM for the first, 170 nM for the second. The first binds more tightly here.

Going from CC(C)(C)OC[C@@H](NS(=O)(=O)Cc1cccc(C(=O)O)c1)C(=O)NCC(=O)NCc1ccc(C(=N)N)cc1 [No. 19, 3-(HOOC)Benzylsulfonyl-dSer(tBu)-Gly 4-amidinobenzylamide×TFA] to CC(C)(C)OC[C@@H](NS(=O)(=O)Cc1ccc(C#N)cc1)C(=O)NCC(=O)NCc1ccc(C(=N)N)cc1 [compound 12], the Ki rises from 27 nM to 65 nM (2.4-fold). The first binds more tightly here.

First: N=C(N)c1ccc(CNC(=O)C(CCCCN)NC(=O)C(CC2CCCCC2)NS(=O)(=O)Cc2ccccc2)cc1 (stereo not drawn) [compound 13]
Second: N=C(N)c1ccc(CNC(=O)CNC(=O)[C@@H](Cc2c[nH]cn2)NS(=O)(=O)Cc2ccccc2)cc1 [compound 32]
The Ki of the first is 10-fold lower: 67 nM for the first, 670 nM for the second. The first binds more tightly here.

Going from CC(C)(C)OCC(NS(=O)(=O)Cc1ccc(C(=O)O)cc1)C(=O)NC(CO)C(=O)NCc1ccc(C(=N)N)cc1 (stereo not drawn) [compound 27] to “4-(Aminomethyl)benzylsulfonyl-dSer(tBu)-Gly 4-amidinobenzylamide×2 TFA [Example 7]”, the Ki falls from 270 nM to 29 nM (9.3-fold). The second binds more tightly here.

Compared with CC(C)(C)OC[C@@H](NS(=O)(=O)Cc1ccccc1)C(=O)N[C@@H](CCC(=O)O)C(=O)NCc1ccc(C(=N)N)cc1 [Bzl—SO2 D CH2—O—tBu H CH—(CH2)2—COOH CH2, Benzylsulfonyl-D-Ser(tBu)-Glu 4-amidinobenzylamide×TFA], CC(C)(C)OC[C@@H](NS(=O)(=O)Cc1ccccc1)C(=O)N[C@@H](CO)C(=O)NCc1ccc(C(=N)N)cc1 [No. 11, Bzls-dSer(tBu)-Ser 4-(amidino)benzylamide×TFA] is 4.3-fold higher in Ki: 6.5 nM for the first, 28 nM for the second.

CC(C)(C)OC[C@@H](NS(=O)(=O)Cc1cccc(C(=O)O)c1)C(=O)NCC(=O)NCc1ccc(C(=N)N)cc1 [compound 19] and COC(=O)c1ccc(CS(=O)(=O)N[C@H](COC(C)(C)C)C(=O)NCC(=O)NCc2ccc(C(=N)N)cc2)cc1 [compound 21] are within 1.5-fold of each other in Ki: 130 nM for the first, 160 nM for the second.

Compared with CC(C)(C)OC[C@@H](NS(=O)(=O)Cc1ccccc1)C(=O)NCC(=O)NCc1ccc(C(N)=NO)cc1 [compound 33], N=C(N)NCCC[C@@H](NS(=O)(=O)CC1CCCCC1)C(=O)NCC(=O)NCc1ccc(C(=N)N)cc1 [compound 2] is 3900-fold lower in Ki: 26000 nM for the first, 6.7 nM for the second.

First: CC(C)(C)OC[C@@H](NS(=O)(=O)Cc1ccc(Cl)cc1)C(=O)NCC(=O)NCc1ccc(C(=N)N)cc1 [compound 3]
Second: N=C(N)c1ccc(CNC(=O)CNC(=O)[C@@H](Cc2cccc(C(=N)N)c2)NS(=O)(=O)Cc2ccccc2)cc1 [No. 1, Benzylsulfonyl-dPhe(3-amidino)-Gly 4-(amidino)benzylamide×2 TFA]
The Ki of the first is 2.4-fold lower: 14 nM for the first, 34 nM for the second. The first binds more tightly here.

CC(C)(C)OC[C@@H](NS(=O)(=O)Cc1ccc(Cl)c(Cl)c1)C(=O)NCC(=O)NCc1ccc(C(=N)N)cc1 [compound 16] and CC(C)(C)OC[C@@H](NS(=O)(=O)CCc1ccccc1)C(=O)NCC(=O)NCc1ccc(C(=N)N)cc1 [compound 17] are within 1.5-fold of each other in Ki: 83 nM for the first, 88 nM for the second.

CC(C)(C)OC[C@@H](NS(=O)(=O)Cc1ccc(C(=O)O)cc1)C(=O)NCC(=O)NCc1ccc(C(=N)N)cc1 [compound 10] and CC(C)(C)OC[C@@H](NS(=O)(=O)Cc1ccc2ccccc2c1)C(=O)NCC(=O)NCc1ccc(C(=N)N)cc1 [compound 15] are within 1.5-fold of each other in Ki: 53 nM for the first, 78 nM for the second.

Compared with CC(C)(C)OC[C@@H](NS(=O)(=O)CCc1cccc2ccccc12)C(=O)NCC(=O)NCc1ccc(C(=N)N)cc1 [compound 28], CC(C)(C)OC[C@@H](NS(=O)(=O)Cc1ccccc1)C(=O)N[C@@H](CO)C(=O)NCc1ccc(C(=N)N)cc1 [compound 11] is 5.2-fold lower in Ki: 280 nM for the first, 54 nM for the second.

Going from N=C(N)c1ccc(CNC(=O)CNC(=O)[C@@H](Cc2ccc(C(=N)N)cc2)NS(=O)(=O)Cc2ccccc2)cc1 [compound 26] to CC(C)(C)OC[C@@H](NS(=O)(=O)Cc1ccccc1C(=O)O)C(=O)NCC(=O)NCc1ccc(C(=N)N)cc1 [compound 20], the Ki falls from 260 nM to 140 nM (1.9-fold). The second binds more tightly here.

First: COC(=O)Cc1ccc(CS(=O)(=O)N[C@H](COC(C)(C)C)C(=O)NCC(=O)NCc2ccc(C(=N)N)cc2)cc1 [compound 14]
Second: CC(C)(C)OC[C@@H](NS(=O)(=O)Cc1ccncc1)C(=O)NCC(=O)NCc1ccc(C(=N)N)cc1 [compound 22]
The Ki of the first is 2.4-fold lower: 70 nM for the first, 170 nM for the second.
